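These data come from cells grown in 96-well plates and exposed to compound for 48 hours at five concentrations. At the GI50, growth is halved. Definition used: TGI = concentration required for complete inhibition of growth.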
How the values were obtained:
Assay in all cases: DTP human tumour cell line panel, 48 h
[1] = system: U251 CNS
[2] = system: NCI-H460 lung
[3] = system: HCT-116 colon
[4] = system: LOX IMVI melanoma
[5] = system: RPMI-8226 leukemia
[6] = system: 786-0 renal
[7] = system: ACHN renal
[8] = system: SN12C renal
[9] = system: SNB-19 CNS
[10] = system: NCI-H23 lung
[11] = system: A549 NSCLC
[12] = system: CCRF-CEM leukemia
[13] = system: EKVX NSCLC
[14] = system: SF-295 CNS
[15] = system: HCT-15 colon
[16] = system: NCI-H522 lung
[17] = system: SK-MEL-28 melanoma
[18] = system: SK-OV-3 ovarian
[19] = system: NCI-H226 lung
[20] = system: SNB-75 CNS
[21] = system: BT-549 breast
[22] = system: RXF 393 renal
[23] = system: SF-539 CNS
[24] = system: OVCAR-5 ovarian
[25] = system: OVCAR-8 ovarian
[26] = system: CAKI-1 renal
[27] = system: SW-620 colon

Structure (SMILES): NC(=Nc1ccc(OCCCCCCCCn2ccnn2)cc1)c1ccccc1
- GI50 [1]: 427 nM
- TGI [1]: 28800 nM
- GI50 [2]: 208 nM
- TGI [2]: 10300 nM
- GI50 [3]: 325 nM
- TGI [3]: 12700 nM
- GI50 [4]: 482 nM
- TGI [4]: 13100 nM
- GI50 [5]: 404 nM
- TGI [5]: 17800 nM
- GI50 [6]: 643 nM
- TGI [6]: > 44100 nM
- GI50 [7]: 714 nM
- TGI [7]: 24700 nM
- GI50 [8]: 495 nM
- TGI [8]: 16100 nM
- GI50 [9]: 757 nM
- TGI [9]: > 49900 nM
- GI50 [10]: 458 nM
- TGI [10]: 17900 nM
- GI50 [11]: 458 nM
- TGI [11]: > 46300 nM
- GI50 [12]: 271 nM
- TGI [12]: 19400 nM
- GI50 [13]: 286 nM
- TGI [13]: > 40900 nM
- GI50 [14]: 204 nM
- TGI [14]: 11500 nM
- GI50 [15]: 236 nM
- TGI [15]: 22900 nM
- GI50 [16]: 207 nM
- TGI [16]: 1900 nM
- GI50 [17]: 662 nM
- TGI [17]: 22900 nM
- GI50 [18]: 532 nM
- TGI [18]: 32800 nM
- GI50 [19]: 853 nM
- TGI [19]: 12100 nM
- GI50 [20]: 163 nM
- TGI [20]: 29200 nM
- GI50 [21]: 656 nM
- TGI [21]: 12200 nM
- GI50 [22]: 304 nM
- TGI [22]: 6290 nM
- GI50 [23]: 239 nM
- TGI [23]: 870 nM
- GI50 [24]: 432 nM
- TGI [24]: 17300 nM
- GI50 [25]: 462 nM
- TGI [25]: 3970 nM
- GI50 [26]: 260 nM
- TGI [26]: 21000 nM
- GI50 [27]: 148 nM
- TGI [27]: > 40800 nM
